Measured values: ChEMBL document CHEMBL1201862, “PubChem BioAssay data set” (2004)
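Exposure lasted 48 hours, with cells grown in 96-well plates and compounds tested at five concentrations. GI50 marks 50% less growth.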 Activity calls are given as the source filed them. No stated cut-off is given here; in the data, active = GI50 up to about 1.1 µM and inactive = higher.

Tests used:
Experiment in all cases: inhibition of tumour cell growth, NCI panel, 48 h
[1] = test system: K562
[2] = test system: KM12
[3] = test system: M14
[4] = test system: DLD-1
[5] = test system: LXFL 529
[6] = test system: CAKI-1
[7] = test system: SK-OV-3
[8] = test system: SNB-19
[9] = test system: OVCAR-8
[10] = test system: NCI-H226
[11] = test system: CCRF-CEM
[12] = test system: ACHN
[13] = test system: SF-268
[14] = test system: LOX IMVI
[15] = test system: Malme-3M
[16] = test system: RXF 393
[17] = test system: NCI-H23
[18] = test system: RPMI-8226
[19] = test system: COLO 205
[20] = test system: 786-0
[21] = test system: HOP-62
[22] = test system: NCI-H460
[23] = test system: SNB-75
[24] = test system: MOLT-4
[25] = test system: SK-MEL-5
[26] = test system: SF-539
[27] = test system: HOP-92
[28] = test system: SK-MEL-28
[29] = test system: UACC-257
[30] = test system: DMS-114
[31] = test system: HCC 2998
[32] = test system: SNB-78
[33] = test system: SF-295
[34] = test system: OVCAR-5
[35] = test system: XF498
[36] = test system: HOP-18
[37] = test system: DMS-273
[38] = test system: SN12C
[39] = test system: A549
[40] = test system: IGROV-1
[41] = test system: HCT-15
[42] = test system: SR
[43] = test system: SK-MEL-2
[44] = test system: U-251
[45] = test system: HCT-116
[46] = test system: HL-60
[47] = test system: TK-10
[48] = test system: EKVX
[49] = test system: UO-31
[50] = test system: UACC-62
[51] = test system: KM-20L2
[52] = test system: HT-29
[53] = test system: OVCAR-4
[54] = test system: M19-MEL
[55] = test system: OVCAR-3
[56] = test system: SW-620
[57] = test system: RXF 631
[58] = test system: NCI-H522
[59] = test system: A498

## COc1ccc(/C=C2\CNC/C(=C\c3ccc(OC)cc3)C2=O)cc1
[1]
  GI50: 14.7 µM (inactive)
[2]
  GI50: 15.9 µM (inactive)
[3]
  GI50: > 100 µM (inactive)
[4]
  GI50: 21 µM (inactive)
[5]
  GI50: 21.8 µM (inactive)
[6]
  GI50: 14.1 µM (inactive)
[7]
  GI50: > 100 µM (inactive)
[8]
  GI50: 80.2 µM (inactive)
[9]
  GI50: 16.1 µM (inactive)
[10]
  GI50: > 100 µM (inactive)
[11]
  GI50: 12.4 µM (inactive)
[12]
  GI50: > 100 µM (inactive)
[13]
  GI50: 24.1 µM (inactive)
[14]
  GI50: 4.22 µM (inactive)
[15]
  GI50: > 100 µM (inactive)
[16]
  GI50: 21 µM (inactive)
[17]
  GI50: 15.8 µM (inactive)
[18]
  GI50: 15.6 µM (inactive)
[19]
  GI50: 49.4 µM (inactive)
[20]
  GI50: 46.3 µM (inactive)
[21]
  GI50: > 100 µM (inactive)
[22]
  GI50: 47.9 µM (inactive)
[23]
  GI50: 30.4 µM (inactive)
[24]
  GI50: 15.8 µM (inactive)
[25]
  GI50: > 100 µM (inactive)
[26]
  GI50: 13.6 µM (inactive)
[27]
  GI50: 56.9 µM (inactive)
[28]
  GI50: 87.9 µM (inactive)
[29]
  GI50: 75.3 µM (inactive)
[30]
  GI50: 45.8 µM (inactive)
[31]
  GI50: 35.3 µM (inactive)
[32]
  GI50: 28.1 µM (inactive)
[33]
  GI50: 31.1 µM (inactive)
[34]
  GI50: > 100 µM (inactive)
[35]
  GI50: 63.2 µM (inactive)
[36]
  GI50: > 100 µM (inactive)
[37]
  GI50: 23.2 µM (inactive)
[38]
  GI50: 37.1 µM (inactive)
[39]
  GI50: 59.4 µM (inactive)
[40]
  GI50: 48.2 µM (inactive)
[41]
  GI50: 27.4 µM
[42]
  GI50: 24.8 µM (inactive)
[43]
  GI50: > 100 µM (inactive)
[44]
  GI50: 17.6 µM (inactive)
[45]
  GI50: 3.24 µM (inactive)
[46]
  GI50: 14 µM (inactive)
[47]
  GI50: > 100 µM (inactive)
[48]
  GI50: > 100 µM (inactive)
[49]
  GI50: > 100 µM (inactive)
[50]
  GI50: 49.4 µM (inactive)
[51]
  GI50: 24.3 µM (inactive)
[52]
  GI50: 27.2 µM (inactive)
[53]
  GI50: 76.9 µM (inactive)
[54]
  GI50: > 100 µM (inactive)
[55]
  GI50: 35 µM (inactive)
[56]
  GI50: 15.8 µM (inactive)

## CC[C@@]1(O)C[C@H](OC2CC(N(C)C)C(OC3CC(O)C(OC4CCC(=O)C(C)O4)C(C)O3)C(C)O2)c2c(cc3c(c2O)C(=O)c2c(O)cccc2C3=O)[C@H]1C(=O)OC (stereo partly specified)
[4]
  GI50: 0.0238 µM (active)
[5]
  GI50: 0.00776 µM (active)
[11]
  GI50: 0.0229 µM (active)
[18]
  GI50: 0.0243 µM (active)
[28]
  GI50: 0.0443 µM (active)
[36]
  GI50: 0.0458 µM (active)
[46]
  GI50: 0.0231 µM (active)
[51]
  GI50: 0.0247 µM (active)
[57]
  GI50: 0.00711 µM (active)

## CCC1(O)CC(c2ccccc2)N(C)C(c2ccccc2)C1 (stereo unspecified)
[1]
  GI50: 94.2 µM (inactive)
[2]
  GI50: > 100 µM (inactive)
[3]
  GI50: > 100 µM (inactive)
[58]
  GI50: 94 µM (inactive)
[4]
  GI50: > 100 µM (inactive)
[5]
  GI50: > 100 µM (inactive)
[6]
  GI50: > 100 µM (inactive)
[7]
  GI50: > 100 µM (inactive)
[8]
  GI50: > 100 µM (inactive)
[9]
  GI50: > 100 µM (inactive)
[10]
  GI50: > 100 µM (inactive)
[11]
  GI50: > 100 µM (inactive)
[12]
  GI50: > 100 µM (inactive)
[13]
  GI50: > 100 µM (inactive)
[14]
  GI50: > 100 µM (inactive)
[15]
  GI50: > 100 µM (inactive)
[16]
  GI50: > 100 µM (inactive)
[17]
  GI50: > 100 µM (inactive)
[19]
  GI50: > 100 µM (inactive)
[20]
  GI50: > 100 µM (inactive)
[21]
  GI50: > 100 µM (inactive)
[22]
  GI50: > 100 µM (inactive)
[23]
  GI50: > 100 µM (inactive)
[59]
  GI50: > 100 µM (inactive)
[24]
  GI50: > 100 µM (inactive)
[25]
  GI50: > 100 µM (inactive)
[26]
  GI50: > 100 µM (inactive)
[27]
  GI50: > 100 µM (inactive)
[28]
  GI50: > 100 µM (inactive)
[29]
  GI50: > 100 µM (inactive)
[30]
  GI50: > 100 µM (inactive)
[31]
  GI50: > 100 µM (inactive)
[32]
  GI50: > 100 µM (inactive)
[33]
  GI50: > 100 µM (inactive)
[34]
  GI50: > 100 µM (inactive)
[37]
  GI50: > 100 µM (inactive)
[38]
  GI50: > 100 µM (inactive)
[39]
  GI50: > 100 µM (inactive)
[40]
  GI50: > 100 µM (inactive)
[41]
  GI50: > 100 µM
[43]
  GI50: > 100 µM (inactive)
[44]
  GI50: > 100 µM (inactive)
[45]
  GI50: 86.9 µM (inactive)
[46]
  GI50: 69.2 µM (inactive)
[47]
  GI50: > 100 µM (inactive)
[48]
  GI50: > 100 µM (inactive)
[49]
  GI50: > 100 µM (inactive)
[50]
  GI50: > 100 µM (inactive)
[51]
  GI50: > 100 µM (inactive)
[52]
  GI50: 97.9 µM (inactive)
[53]
  GI50: > 100 µM (inactive)
[54]
  GI50: > 100 µM (inactive)
[57]
  GI50: > 100 µM (inactive)
[55]
  GI50: > 100 µM (inactive)
[56]
  GI50: > 100 µM (inactive)
